{"source": "ChEMBL document CHEMBL2216749", "about": "“Recent developments and biological activities of thiazolidinone derivatives: a review” (Bioorg Med Chem, 2012)", "key": {"[1]": {"target": "T1, Follicle-stimulating hormone receptor (Homo sapiens, UniProt P23945)", "T1 sequence (P23945 whole entry)": "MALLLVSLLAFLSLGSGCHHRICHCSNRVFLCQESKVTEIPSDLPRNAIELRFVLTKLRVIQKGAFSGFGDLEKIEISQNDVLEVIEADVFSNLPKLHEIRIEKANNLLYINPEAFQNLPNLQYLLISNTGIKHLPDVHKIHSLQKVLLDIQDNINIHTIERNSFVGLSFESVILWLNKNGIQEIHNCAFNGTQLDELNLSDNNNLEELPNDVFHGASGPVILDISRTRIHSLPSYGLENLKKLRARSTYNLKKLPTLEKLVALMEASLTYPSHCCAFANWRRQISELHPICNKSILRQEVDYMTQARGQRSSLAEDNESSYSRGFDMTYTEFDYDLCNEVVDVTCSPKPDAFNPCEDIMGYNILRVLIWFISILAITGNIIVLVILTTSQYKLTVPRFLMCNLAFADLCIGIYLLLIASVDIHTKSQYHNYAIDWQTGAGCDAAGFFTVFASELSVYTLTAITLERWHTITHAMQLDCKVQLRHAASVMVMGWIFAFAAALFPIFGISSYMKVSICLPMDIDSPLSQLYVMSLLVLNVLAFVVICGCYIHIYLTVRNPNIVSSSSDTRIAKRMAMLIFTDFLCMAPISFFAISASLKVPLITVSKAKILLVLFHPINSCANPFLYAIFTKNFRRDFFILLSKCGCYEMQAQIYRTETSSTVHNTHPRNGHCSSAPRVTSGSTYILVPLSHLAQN", "assay": "Allosteric activation of human FSH receptor"}, "[2]": {"target": "T1, Follicle-stimulating hormone receptor", "assay": "Agonist activity at human FSH receptor by cAMP-based assay", "format": "functional"}, "[3]": {"target": "T1, Follicle-stimulating hormone receptor", "assay": "Agonist activity at human FSH receptor by aromatase-based assay", "format": "functional"}, "[4]": {"target": "Muscarinic acetylcholine receptor M1 (Rattus norvegicus, UniProt P08482)", "sequence (P08482 whole entry)": "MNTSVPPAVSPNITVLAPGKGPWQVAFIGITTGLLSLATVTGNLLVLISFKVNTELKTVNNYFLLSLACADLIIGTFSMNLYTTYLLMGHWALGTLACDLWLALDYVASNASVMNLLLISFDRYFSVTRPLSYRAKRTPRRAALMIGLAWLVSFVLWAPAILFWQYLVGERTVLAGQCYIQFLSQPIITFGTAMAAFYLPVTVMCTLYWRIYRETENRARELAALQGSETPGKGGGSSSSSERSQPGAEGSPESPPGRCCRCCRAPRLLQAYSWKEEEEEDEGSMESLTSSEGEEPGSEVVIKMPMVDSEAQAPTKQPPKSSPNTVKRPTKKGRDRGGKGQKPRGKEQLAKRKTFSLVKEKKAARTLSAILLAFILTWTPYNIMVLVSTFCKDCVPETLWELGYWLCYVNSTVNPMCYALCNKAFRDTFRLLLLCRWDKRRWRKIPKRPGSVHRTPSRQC", "assay": "Displacement of [3H]QNB from M1 receptor in Wistar rat cerebral cortex homogenate", "format": "tissue-based"}, "[5]": {"target": "Tyrosine-protein phosphatase non-receptor type 1 (Homo sapiens, UniProt P18031)", "sequence (P18031 whole entry)": "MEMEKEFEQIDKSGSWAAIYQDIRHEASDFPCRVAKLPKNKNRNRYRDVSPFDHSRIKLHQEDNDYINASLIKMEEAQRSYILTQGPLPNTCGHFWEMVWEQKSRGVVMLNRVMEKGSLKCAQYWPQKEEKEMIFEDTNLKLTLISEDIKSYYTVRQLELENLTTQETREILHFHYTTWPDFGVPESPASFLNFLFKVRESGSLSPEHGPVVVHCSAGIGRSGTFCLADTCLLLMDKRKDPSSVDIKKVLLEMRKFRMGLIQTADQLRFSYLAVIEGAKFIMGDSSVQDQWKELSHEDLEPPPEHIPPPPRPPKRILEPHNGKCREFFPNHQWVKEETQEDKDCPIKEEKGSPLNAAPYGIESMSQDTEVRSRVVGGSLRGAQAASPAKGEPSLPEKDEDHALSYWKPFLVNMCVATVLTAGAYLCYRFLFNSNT", "assay": "Inhibition of GST-tagged PTP1B using pNPP as substrate by spectrophotometric analysis"}, "[6]": {"test_system": "Human immunodeficiency virus 1", "assay": "Antiviral activity against HIV1", "format": "functional, organism-based"}, "[7]": {"target": "T2, Human immunodeficiency virus type 1 integrase (Human immunodeficiency virus 1, UniProt Q7ZJM1)", "T2 sequence (Q7ZJM1 whole entry)": "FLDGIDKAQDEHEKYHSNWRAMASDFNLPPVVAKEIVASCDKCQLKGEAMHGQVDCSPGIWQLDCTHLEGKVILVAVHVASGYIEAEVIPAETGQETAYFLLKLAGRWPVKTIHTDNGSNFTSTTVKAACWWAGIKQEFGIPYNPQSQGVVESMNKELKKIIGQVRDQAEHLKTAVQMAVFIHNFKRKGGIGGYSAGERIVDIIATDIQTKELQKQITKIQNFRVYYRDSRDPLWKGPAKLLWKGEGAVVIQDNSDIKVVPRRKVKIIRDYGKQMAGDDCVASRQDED", "assay": "Inhibition of HIV1 integrase 3' processing activity"}, "[8]": {"target": "T2, Human immunodeficiency virus type 1 integrase", "assay": "Inhibition of HIV1 integrase strand transfer activity"}, "[9]": {"assay": "Inhibition of HIV reverse transcriptase", "set-up": "species or system Human immunodeficiency virus"}, "[10]": {"target": "C-C chemokine receptor type 4 (Homo sapiens, UniProt P51679)", "sequence (P51679 whole entry)": "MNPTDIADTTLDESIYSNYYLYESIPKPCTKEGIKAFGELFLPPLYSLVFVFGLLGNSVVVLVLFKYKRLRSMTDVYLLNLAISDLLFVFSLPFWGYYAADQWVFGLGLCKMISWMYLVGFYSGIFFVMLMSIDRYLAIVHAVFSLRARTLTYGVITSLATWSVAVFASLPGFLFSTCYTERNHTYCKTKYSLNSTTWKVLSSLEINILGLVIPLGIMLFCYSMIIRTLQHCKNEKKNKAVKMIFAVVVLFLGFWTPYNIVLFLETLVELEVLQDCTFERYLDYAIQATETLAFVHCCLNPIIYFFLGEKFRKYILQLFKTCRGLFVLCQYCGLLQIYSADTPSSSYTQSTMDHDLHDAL", "assay": "Antagonist activity at CCR4", "format": "functional"}, "[11]": {"target": "Phosphotyrosine-protein phosphatase PTPB (Mycobacterium tuberculosis, UniProt P96830)", "sequence (P96830 whole entry)": "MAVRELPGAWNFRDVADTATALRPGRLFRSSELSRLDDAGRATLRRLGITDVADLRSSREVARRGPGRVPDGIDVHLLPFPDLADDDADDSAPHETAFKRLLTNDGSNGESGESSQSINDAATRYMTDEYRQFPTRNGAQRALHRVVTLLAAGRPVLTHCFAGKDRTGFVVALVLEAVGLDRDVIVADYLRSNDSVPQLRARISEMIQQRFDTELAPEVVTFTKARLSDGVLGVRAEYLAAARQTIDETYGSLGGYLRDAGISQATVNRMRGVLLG", "assay": "Inhibition of Mycobacterium tuberculosis protein tyrosine phosphatase B"}, "[12]": {"test_system": "Mycobacterium tuberculosis", "assay": "Growth inhibition of Mycobacterium tuberculosis H37Rv", "format": "functional"}, "[13]": {"test_system": "Mycobacterium tuberculosis", "assay": "Antimycobacterial activity against Mycobacterium tuberculosis H37Rv by alamar blue susceptibility assay", "format": "functional"}, "[14]": {"test_system": "Escherichia coli", "assay": "Antibacterial activity against Escherichia coli", "format": "functional"}, "[15]": {"test_system": "Bacillus subtilis", "assay": "Antibacterial activity against Bacillus subtilis", "format": "functional"}, "[16]": {"test_system": "Salmonella typhimurium", "assay": "Antibacterial activity against Salmonella typhimurium", "format": "functional, Salmonella enterica subsp. enterica serovar Typhimurium"}, "[17]": {"test_system": "Mycobacterium tuberculosis", "assay": "Growth inhibition of Mycobacterium tuberculosis H37Rv at 6.25 ug/ml", "format": "functional", "conditions": "read-out: GI"}, "[18]": {"test_system": "Ditylenchus myceliophagus", "assay": "Nematicidal activity against Ditylenchus myceliophagus after 2 days", "format": "functional", "conditions": "48 h, read-out: LD50 (the source's name)"}, "[19]": {"test_system": "Rattus norvegicus", "assay": "Antiinflammatory activity in rat assessed as inhibition of carageenaan-induced paw edema relative to control", "format": "functional"}, "[20]": {"test_system": "Caenorhabditis elegans", "assay": "Nematicidal activity against Caenorhabditis elegans after 2 days", "format": "functional", "conditions": "48 h, read-out: LD50 (the source's name)"}, "[21]": {"test_system": "Trypanosoma", "assay": "Growth inhibition of epimastigote form of Trypanosoma at 100 ug/ml", "format": "functional", "conditions": "read-out: GI"}, "[22]": {"test_system": "Trypanosoma cruzi", "assay": "Growth inhibition of Trypanosoma cruzi at 100 ug/ml", "format": "functional", "conditions": "read-out: GI"}, "[23]": {"test_system": "Bovine viral diarrhea virus 1", "assay": "Antiviral activity against Bovine viral diarrhea virus", "format": "functional, organism-based", "conditions": "Bovine viral diarrhea virus isolates and strains"}, "[24]": {"test_system": "Human alphaherpesvirus 1", "assay": "Antiviral activity against Herpes simplex virus 1 KOS", "format": "functional, organism-based", "conditions": "Human alphaherpesvirus 1, KOS"}, "[25]": {"test_system": "Human alphaherpesvirus 2", "assay": "Antiviral activity against Herpes simplex virus 2", "format": "functional, organism-based"}, "[26]": {"test_system": "Influenza A virus", "assay": "Antiviral activity against Influenza A virus H3N2", "format": "functional, organism-based"}, "[27]": {"test_system": "Influenza B virus", "assay": "Antiviral activity against influenza B virus", "format": "functional, organism-based"}}, "data": [{"smiles": "COc1ccc(CCNC(=O)C[C@H]2S[C@@H](c3ccc(C#Cc4ccccc4)cc3)N(c3ccc(C(N)=O)c(Cl)c3)C2=O)cc1OC", "values": [{"measurement": "EC50", "setting": "[1]", "value": 0.001, "unit": "µM"}]}, {"smiles": "CCOc1cc(CCNC(=O)C[C@H]2S[C@@H](c3ccc(C#Cc4ccccc4)cc3)NC2=O)ccc1OC", "values": [{"measurement": "EC50", "setting": "[2]", "value": 0.08, "unit": "µM"}, {"measurement": "EC50", "setting": "[3]", "value": 0.05, "unit": "µM"}]}, {"smiles": "Cc1ccc(C2SCC(=O)N2C2=CCCN(C)C2)cc1", "note": "(centres undefined)", "values": [{"measurement": "IC50", "setting": "[4]", "value": 143, "unit": "µM"}, {"measurement": "Ki", "setting": "[4]", "value": 26, "unit": "µM"}]}, {"smiles": "O=C(O)CN1C(=O)/C(=C/c2ccc(-c3ccc(OCc4ccccc4)cc3)cc2)SC1=S", "values": [{"measurement": "IC50", "setting": "[5]", "value": 0.48, "unit": "µM"}]}, {"smiles": "Cc1cccc(N2C(=O)CSC2c2ccccn2)n1", "note": "(centres undefined)", "values": [{"measurement": "EC50", "setting": "[6]", "value": 0.0078, "unit": "µM"}]}, {"smiles": "O=C(Nc1ccc(O)cc1)C(=S)NN1C(=O)/C(=C\\c2cc(I)cc(I)c2O)SC1=S", "values": [{"measurement": "IC50", "setting": "[7]", "value": 7, "unit": "µM"}, {"measurement": "IC50", "setting": "[8]", "value": 3, "unit": "µM"}]}, {"smiles": "Cc1nc(N2C(=O)CSC2c2ccccc2Cl)nc(C)c1C", "note": "(centres undefined)", "values": [{"measurement": "IC50", "setting": "[9]", "value": 2.95, "unit": "µM"}]}, {"smiles": "C[C@H](NC(=O)C[C@H]1S[C@H](c2ccc(Cl)cc2Cl)N(CC(=O)NCCCN2CCCCC2)C1=O)c1cccc2ccccc12", "values": [{"measurement": "IC50", "setting": "[10]", "value": 0.11, "unit": "µM"}]}, {"smiles": "O=C1CS(=O)(=O)C2(C(=O)N(Cc3ccc(Br)cc3)c3ccc([N+](=O)[O-])cc32)N1c1ccc(F)c(F)c1", "note": "(centres undefined)", "values": [{"measurement": "IC50", "setting": "[11]", "value": 1.1, "unit": "µM"}]}, {"smiles": "O=c1oc2ccccc2cc1-c1cs/c(=N\\N=C\\c2ccc(Cl)c(Cl)c2)n1C1CCCCC1", "values": [{"measurement": "Imax", "setting": "[12]", "value": 42, "unit": "%"}]}, {"smiles": "COc1cc(C2SCC(=O)N2NC(=O)c2ccncc2)ccc1O", "note": "(centres undefined)", "values": [{"measurement": "MIC", "setting": "[13]", "value": 0.31, "unit": "µg/mL"}]}, {"smiles": "CC1C(N2C(=O)CSC2c2cc(I)cc(I)c2O)C(=O)N(c2ccccc2)N1C", "note": "(centres undefined)", "values": [{"measurement": "inhibition zone (IZ)", "setting": "[14]", "value": 27, "unit": "mm"}, {"measurement": "inhibition zone (IZ)", "setting": "[15]", "value": 24, "unit": "mm"}, {"measurement": "inhibition zone (IZ)", "setting": "[16]", "value": 25, "unit": "mm"}]}, {"smiles": "COc1ccc(C(=O)Nc2ccc(C(=O)NN3C(=O)CSC3c3coc([N+](=O)[O-])c3)cc2)cc1", "note": "(centres undefined)", "values": [{"measurement": "inhibition of growth at 6.25 µg/mL", "setting": "[17]", "value": 90, "unit": "%"}]}, {"smiles": "COc1ccc(Cc2cccc(C3SC(CC(=O)O)C(=O)N3c3cccc(O)c3)c2)cc1C1SC(CC(=O)O)C(=O)N1c1cccc(O)c1", "note": "(centres undefined)", "values": [{"measurement": "LC50", "setting": "[18]", "value": 210, "unit": "µg/mL"}]}, {"smiles": "Cc1c(N2C(=O)CSC2c2cc(I)cc(I)c2O)c(=O)n(-c2ccccc2)n1C", "note": "(centres undefined)", "values": [{"measurement": "inhibition zone (IZ)", "setting": "[14]", "value": 27, "unit": "mm"}, {"measurement": "inhibition zone (IZ)", "setting": "[15]", "value": 24, "unit": "mm"}, {"measurement": "inhibition zone (IZ)", "setting": "[16]", "value": 25, "unit": "mm"}]}, {"smiles": "NS(=O)(=O)c1ccc(N2C(=O)CSC2c2ccccc2)cc1", "note": "(centres undefined)", "values": [{"measurement": "inhibition (INH)", "setting": "[19]", "value": 78, "unit": "%"}]}, {"smiles": "COc1ccc(Cc2cccc(C3SCC(=O)N3c3cccc(O)c3)c2)cc1C1SCC(=O)N1c1cccc(O)c1", "note": "(centres undefined)", "values": [{"measurement": "LC50", "setting": "[20]", "value": 240, "unit": "µg/mL"}]}, {"smiles": "O=C1CSC(c2cccc3ccccc23)N1c1ccc(Br)cc1", "note": "(centres undefined)", "values": [{"measurement": "inhibition of growth at 100 µg/mL", "setting": "[21]", "value": 91.4, "unit": "%"}]}, {"smiles": "CNC(=O)CC1S/C(=N\\N=C(/C)c2cccc(Br)c2)N(C)C1=O", "note": "(centres undefined)", "values": [{"measurement": "inhibition of growth at 100 µg/mL", "setting": "[22]", "value": 60, "unit": "%"}]}, {"smiles": "O=C(N/N=C1/SCC(=O)N1c1ccccc1)c1cc(-c2cc3ccccc3o2)n(-c2ccccc2)n1", "values": [{"measurement": "inhibition zone (IZ)", "setting": "[15]", "value": 40, "unit": "mm"}]}, {"smiles": "CC1S/C(=N/N=C2\\C(=O)Nc3ccc([N+](=O)[O-])cc32)N(c2ccc(Br)cc2)C1=O", "note": "(centres undefined)", "values": [{"measurement": "EC50", "setting": "[23]", "value": 13, "unit": "µg/mL"}]}, {"smiles": "Cc1cc(C)nc(N2C(=O)CSC2c2c(C)cccc2C)c1", "note": "(centres undefined)", "values": [{"measurement": "EC50", "setting": "[24]", "value": 130, "unit": "µM"}, {"measurement": "EC50", "setting": "[25]", "value": 161, "unit": "µM"}, {"measurement": "EC50", "setting": "[26]", "value": 249, "unit": "µM"}, {"measurement": "EC50", "setting": "[27]", "value": 263, "unit": "µM"}]}, {"smiles": "COc1ccc(C(=O)Nc2ccc(C(=O)NN3C(=O)CSC3c3ccc(F)cc3)cc2)cc1", "note": "(centres undefined)", "values": [{"measurement": "inhibition of growth at 6.25 µg/mL", "setting": "[17]", "value": 98, "unit": "%"}]}, {"smiles": "Cc1ccc(-c2cc(C(F)(F)F)nn2-c2ccc(S(N)(=O)=O)cc2)cc1", "note": "[CELECOXIB]", "values": [{"measurement": "inhibition (INH)", "setting": "[19]", "value": 45, "unit": "%"}]}]}
